From ChEMBL document CHEMBL4190297, “Cafestol, a Bioactive Substance in Coffee, Has Antidiabetic Properties in KKAy Mice” (J Nat Prod, 2017)
The source made the active and inactive calls. The calls are words filed in the database; no cut-off is given here.

How the values were obtained:
Mus musculus [1] = species: Mus musculus; experiment: Toxicity in KK-Ay diabetic mouse model assessed as increase in body weight at 1.1 mg added daily to normal chow pellets for 8 weeks; format: organism-based; settings: in vivo, po, 1344 h
Mus musculus [2] = species: Mus musculus; experiment: Antidiabetic activity in KK-Ay diabetic mouse model assessed as non-fasting blood glucose level at 1.1 mg added daily to normal chow pellets for 10 weeks (reference value: 26.2 +/- 1.2 mmol/L); format: functional
Mus musculus [3] = species: Mus musculus; experiment: Antidiabetic activity in KK-Ay diabetic mouse model assessed as increase in insulin levels in plasma at 1.1 mg added daily to normal chow pellets for 10 weeks by radioimmunoassay; format: functional, organism-based
Mus musculus [4] = species: Mus musculus; experiment: Antidiabetic activity in KK-Ay diabetic mouse model assessed as effect on total cholesterol level at 0.14 to 1.1 mg added daily to normal chow pellets for 10 weeks by colorimetric analysis; format: functional, organism-based
Mus musculus [5] = species: Mus musculus; experiment: Induction of 3.3 mM glucose-stimulated insulin secretion in pancreatic islets isolated from KK-Ay diabetic mouse model at 1.1 mg added daily to normal chow pellets for 10 weeks followed by glucose stimulation of isolated pancreatic islets for 1 hr by radioimmunoassay relative to control; format: functional
Mus musculus [6] = species: Mus musculus; experiment: Antidiabetic activity in KK-Ay diabetic mouse model assessed as decrease in GCRG mRNA expression levels in muscle tissue at 0.4 mg added daily to normal chow pellets for 10 weeks by qRT-PCR analysis; format: functional, organism-based
Mus musculus [7] = species: Mus musculus; experiment: Effect on InsR mRNA expression levels in adipose tissue of KK-Ay diabetic mouse model at 0.4 to 1.1 mg added daily to normal chow pellets for 10 weeks by qRT-PCR analysis; format: functional, organism-based
Mus musculus [8] = species: Mus musculus; experiment: Effect on Hprt1 mRNA expression levels in adipose tissue of KK-Ay diabetic mouse model at 0.4 to 1.1 mg added daily to normal chow pellets for 10 weeks by qRT-PCR analysis; format: functional, organism-based
Mus musculus [9] = species: Mus musculus; experiment: Effect on GYS2 mRNA expression levels in adipose tissue of KK-Ay diabetic mouse model at 0.4 to 1.1 mg added daily to normal chow pellets for 10 weeks by qRT-PCR analysis; format: functional, organism-based
Mus musculus [10] = species: Mus musculus; experiment: Effect on 18s rRNA expression levels in adipose tissue of KK-Ay diabetic mouse model at 0.4 to 1.1 mg added daily to normal chow pellets for 10 weeks by qRT-PCR analysis; format: functional, organism-based
Mus musculus [11] = species: Mus musculus; experiment: Effect on SOD2 mRNA expression levels in muscle of KK-Ay diabetic mouse model at 0.4 to 1.1 mg added daily to normal chow pellets for 10 weeks by qRT-PCR analysis; format: functional, organism-based
Mus musculus [12] = species: Mus musculus; experiment: Effect on Sirt1 mRNA expression levels in muscle of KK-Ay diabetic mouse model at 0.4 to 1.1 mg added daily to normal chow pellets for 10 weeks by qRT-PCR analysis; format: functional, organism-based
Mus musculus [13] = species: Mus musculus; experiment: Effect on JNK1 mRNA expression levels in muscle of KK-Ay diabetic mouse model at 0.4 to 1.1 mg added daily to normal chow pellets for 10 weeks by qRT-PCR analysis; format: functional, organism-based
Mus musculus [14] = species: Mus musculus; experiment: Effect on Hprt1 mRNA expression levels in muscle of KK-Ay diabetic mouse model at 0.4 to 1.1 mg added daily to normal chow pellets for 10 weeks by qRT-PCR analysis; format: functional, organism-based
Mus musculus [15] = species: Mus musculus; experiment: Effect on GYS2 mRNA expression levels in muscle of KK-Ay diabetic mouse model at 0.4 to 1.1 mg added daily to normal chow pellets for 10 weeks by qRT-PCR analysis; format: functional, organism-based
Mus musculus [16] = species: Mus musculus; experiment: Effect on GLUT2 mRNA expression levels in muscle of KK-Ay diabetic mouse model at 0.4 to 1.1 mg added daily to normal chow pellets for 10 weeks by qRT-PCR analysis; format: functional, organism-based
Mus musculus [17] = species: Mus musculus; experiment: Effect on Gcgr mRNA expression levels in muscle of KK-Ay diabetic mouse model at 0.4 to 1.1 mg added daily to normal chow pellets for 10 weeks by qRT-PCR analysis; format: functional, organism-based
Mus musculus [18] = species: Mus musculus; experiment: Effect on FAS mRNA expression levels in muscle of KK-Ay diabetic mouse model at 0.4 to 1.1 mg added daily to normal chow pellets for 10 weeks by qRT-PCR analysis; format: functional, organism-based
Mus musculus [19] = species: Mus musculus; experiment: Effect on CD36 mRNA expression levels in muscle of KK-Ay diabetic mouse model at 0.4 to 1.1 mg added daily to normal chow pellets for 10 weeks by qRT-PCR analysis; format: functional, organism-based
Mus musculus [20] = species: Mus musculus; experiment: Effect on AMPKalpha2 mRNA expression levels in muscle of KK-Ay diabetic mouse model at 0.4 to 1.1 mg added daily to normal chow pellets for 10 weeks by qRT-PCR analysis; format: functional, organism-based
Mus musculus [21] = species: Mus musculus; experiment: Effect on Acaca mRNA expression levels in muscle of KK-Ay diabetic mouse model at 0.4 to 1.1 mg added daily to normal chow pellets for 10 weeks by qRT-PCR analysis; format: functional, organism-based
Mus musculus [22] = species: Mus musculus; experiment: Effect on SOD2 mRNA expression levels in liver of KK-Ay diabetic mouse model at 0.4 to 1.1 mg added daily to normal chow pellets for 10 weeks by qRT-PCR analysis; format: functional, organism-based
Mus musculus [23] = species: Mus musculus; experiment: Effect on PPARgamma mRNA expression levels in liver of KK-Ay diabetic mouse model at 0.4 to 1.1 mg added daily to normal chow pellets for 10 weeks by qRT-PCR analysis; format: functional, organism-based
Mus musculus [24] = species: Mus musculus; experiment: Effect on Pi3K mRNA expression levels in liver of KK-Ay diabetic mouse model at 0.4 to 1.1 mg added daily to normal chow pellets for 10 weeks by qRT-PCR analysis; format: functional, organism-based
Mus musculus [25] = species: Mus musculus; experiment: Effect on Lipc mRNA expression levels in liver of KK-Ay diabetic mouse model at 0.4 to 1.1 mg added daily to normal chow pellets for 10 weeks by qRT-PCR analysis; format: functional, organism-based
Mus musculus [26] = species: Mus musculus; experiment: Effect on JNK1 mRNA expression levels in liver of KK-Ay diabetic mouse model at 0.4 to 1.1 mg added daily to normal chow pellets for 10 weeks by qRT-PCR analysis; format: functional, organism-based
Mus musculus [27] = species: Mus musculus; experiment: Effect on GLUT2 mRNA expression levels in liver of KK-Ay diabetic mouse model at 0.4 to 1.1 mg added daily to normal chow pellets for 10 weeks by qRT-PCR analysis; format: functional, organism-based
Mus musculus [28] = species: Mus musculus; experiment: Effect on FABP4 mRNA expression levels in liver of KK-Ay diabetic mouse model at 0.4 to 1.1 mg added daily to normal chow pellets for 10 weeks by qRT-PCR analysis; format: functional, organism-based
Mus musculus [29] = species: Mus musculus; experiment: Effect on Akt2 mRNA expression levels in liver of KK-Ay diabetic mouse model at 0.4 to 1.1 mg added daily to normal chow pellets for 10 weeks by qRT-PCR analysis; format: functional, organism-based
Mus musculus [30] = species: Mus musculus; experiment: Effect on Adipor1 mRNA expression levels in liver of KK-Ay diabetic mouse model at 0.4 to 1.1 mg added daily to normal chow pellets for 10 weeks by qRT-PCR analysis; format: functional, organism-based
Mus musculus [31] = species: Mus musculus; experiment: Effect on Acaca mRNA expression levels in liver of KK-Ay diabetic mouse model at 0.4 to 1.1 mg added daily to normal chow pellets for 10 weeks by qRT-PCR analysis; format: functional, organism-based
Mus musculus [32] = species: Mus musculus; experiment: Effect on PPARGC1alpha mRNA expression levels in adipose tissue of KK-Ay diabetic mouse model at 0.4 to 1.1 mg added daily to normal chow pellets for 10 weeks by qRT-PCR analysis; format: functional, organism-based
Mus musculus [33] = species: Mus musculus; experiment: Effect on SOD2 mRNA expression levels in adipose tissue of KK-Ay diabetic mouse model at 0.4 to 1.1 mg added daily to normal chow pellets for 10 weeks by qRT-PCR analysis; format: functional, organism-based

## C[C@@]12CCc3occc3[C@H]1CC[C@@]13C[C@H](CC[C@H]12)[C@@](O)(CO)C3
Mus musculus [1]
  Activity: > 3 g
Mus musculus [2]
  Activity: 19.7 mmol/L
Mus musculus [3]
  Activity: inactive
Mus musculus [4]
  Activity: inactive
Mus musculus [5]
  Activity: 44%
Mus musculus [6]
  Activity: Active
Mus musculus [7]
  Activity: inactive
Mus musculus [8]
  Activity: inactive
Mus musculus [9]
  Activity: inactive
Mus musculus [10]
  Activity: inactive
Mus musculus [11]
  Activity: inactive
Mus musculus [12]
  Activity: inactive
Mus musculus [13]
  Activity: inactive
Mus musculus [14]
  Activity: inactive
Mus musculus [15]
  Activity: inactive
Mus musculus [16]
  Activity: inactive
Mus musculus [17]
  Activity: inactive
Mus musculus [18]
  Activity: inactive
Mus musculus [19]
  Activity: inactive
Mus musculus [20]
  Activity: inactive
Mus musculus [21]
  Activity: inactive
Mus musculus [22]
  Activity: inactive
Mus musculus [23]
  Activity: inactive
Mus musculus [24]
  Activity: inactive
Mus musculus [25]
  Activity: inactive
Mus musculus [26]
  Activity: inactive
Mus musculus [27]
  Activity: inactive
Mus musculus [28]
  Activity: inactive
Mus musculus [29]
  Activity: inactive
Mus musculus [30]
  Activity: inactive
Mus musculus [31]
  Activity: inactive
Mus musculus [32]
  Activity: inactive
Mus musculus [33]
  Activity: inactive
